We go through 14 compounds from article PMC6018602, “The virulence factor LecB varies in clinical isolates: consequences for ligand binding and drug discovery” (Chemical Science, 2016).

Values joined by “and” are separate entries in the source; they are usually repeats but may differ in a detail not shown here. Equal values may be shown once. Read-outs that look alike come from different tables or passages of the source.

The target of assay [1] is T1, LecBPAO1 (Pseudomonas aeruginosa, UniProt Q9HYN5). The following applies: cited from earlier work; for N (LecBPAO1): ITC stoichiometry.
In assay [2] the target is T2, LecBPA14 (Pseudomonas aeruginosa, UniProt A0A0H2ZE85). Briefly: biochemical. Type of assay: binding, P. aeruginosa PA14.
Assay [3] deals with T2, LecBPA14. Nature of the assay: biochemical. The class given is binding, P. aeruginosa PA14. The method, then: (§1) To quantify the binding affinities of the carbohydrates we adapted the competitive binding assay for LecBPA14 (Fig. S5 ^†) previously described for LecBPAO1.[18]
(§2) The competitive binding assay based on fluorescence polarization was performed as described previously for PAO1.[18] […] After addition of the reagents, the plate was incubated for 8–22 h at r.t. in a humidity chamber. […] The measured intensities were reduced by buffer values and fluorescence polarization was calculated. The data were analyzed using BMG Labtech MARS software and/or with Graphpad Prism and fitted according to the four parameter variable slope model. […] A minimum of three independent measurements of triplicates each was performed for every ligand.
This is another data set of the same source.

Assay [4] has as its target T1, LecBPAO1. Briefly: biochemical. The class given is binding, P. aeruginosa PAO1. The method, then: as §1, §2
The target of assay [5] is T1, LecBPAO1. Nature of the assay: biochemical. Type of assay: binding, P. aeruginosa PAO1. The source holds these as a separate data set.
The target of assay [6] is LecB from P. aeruginosa PA14 (Pseudomonas aeruginosa UCBPP-PA14). Nature of the assay: crystal structure; native LecB_(PA14), hanging drop vapor diffusion at 19 °C, molecular replacement with the tetramer of PDB 1UZV, 1.70 Å.
The target is the same in assay [7]. Briefly: dynamic light scattering; 100 μM LecB in TBS/Ca (20 mM Tris, 137 mM NaCl, 2.6 mM KCl, pH 7.4, 1 mM CaCl2), 25 °C, Zetasizer Nano-ZS.
The mark [8] stands for this setting: individual ITC titrations, Fig. S6, TBS supplemented with 1 mM CaCl2.
Setting [9] is: individual ITC titrations, Fig. S6, TBS supplemented with 1 mM CaCl2, protein and ligand concentrations vary.
Setting [10] is: LecBPAO1 IC50, competitive binding assay, Fig. 3.
The mark [11] stands for this setting: IC50 for LecBPAO1, competitive binding assay.

As for `CO[C@@H]1O[C@@H](C)[C@@H](O)[C@@H](O)[C@@H]1O` [Compound 2, methyl α-L-fucoside], on LecBPAO1 [1] (ITC), the “-TΔS (LecBPAO1)” value was 1.17 kcal/mol and the “ΔH (LecBPAO1)” value was -9.87 kcal/mol. Moreover, on LecBPA14 [2] (ITC stoichiometry, 25 °C), the “N (LecBPA14)” value is 0.99 ± 0.04. Besides, on LecBPA14 [2] (ITC, 25 °C), the “-TΔS (LecBPA14)” value is -1.5 ± 0.201 kcal/mol and the “ΔH (LecBPA14)” value is -7.65 ± 0.227 kcal/mol. Further, at LecBPA14 [2] (setting [8]), the G was -9,15E+03 cal/mol and -9,22E+03 cal/mol and -9,24E+03 cal/mol and -8,96E+03 cal/mol; the H was -7.957 kcal/mol and -7.593 kcal/mol and -7.612 kcal/mol and -7.414 kcal/mol; the s was 5,45 cal/molK and 5,47 cal/molK and 5,18 cal/molK and 4,01 cal/molK. The Ka on LecBPA14 [2] (setting [9]) is 3,69E+06 1/M.
As to `CO[C@H]1O[C@H](CO)[C@@H](O)[C@H](O)[C@@H]1O` [Compound 5, methyl α-D-mannoside], on LecBPAO1 [1], the “N (LecBPAO1)” value is 0.94. Besides, on LecBPAO1 [1] (ITC), the “-TΔS (LecBPAO1)” value is -1.41 kcal/mol and the “ΔH (LecBPAO1)” value was -4.25 kcal/mol. Further, at LecBPA14 [2], the “-TΔS (LecBPA14)” value was -3.47 ± 0.0789 kcal/mol; the G is -6,63E+03 cal/mol and -6,52E+03 cal/mol and -6,48E+03 cal/mol; the Ka was 7,18E+04 1/M and 6,20E+04 1/M and 5,54E+04 1/M; the “N (LecBPA14)” value amounted to 1.03 ± 0.07. Moreover, on LecBPA14 [2], the s was 11,8 cal/molK and 11,3 cal/molK and 11,7 cal/molK; the “ΔH (LecBPA14)” value is -3.08 ± 0.0813 kcal/mol.
As usually defined, the IC50 is the concentration needed to halve the response being measured. As for `CO[C@@H]1OC[C@@H](O)[C@@H](O)[C@@H]1O` [Compound 6, methyl β-D-arabinoside], at LecBPA14 [3], the half-inhibitory concentration (IC50) came to 1900 ± 400 nM.
At LecBPA14 [3], `OC1[C@H](O)COC[C@H]1O` [Compound 7, 1-deoxy D-arabinose] registered an IC50 of 6800 ± 1200 nM.
`C[C@@H]1OC[C@@H](O)[C@H](O)[C@@H]1O` [Compound 8, 1-deoxy L-fucose] showed an IC50 at LecBPA14 [3] of 610 ± 100 nM.
Regarding `OC[C@H]1OC[C@@H](O)[C@@H](O)[C@@H]1O` [Compound 9, 1-deoxy D-mannose], on LecBPA14 [3], the midpoint of inhibition, the IC50, lay at 56000 ± 16000 nM.
With `OCC1OC(OC2C(O)OC(CO)C(O)C2O)C(O)C(O)C1O` [Compound 10, α-1,2-D-mannosyl D-mannose], the figures for the half-maximal inhibitory concentration (IC50) against LecBPA14 [3] and on LecBPAO1 [4] (setting [10]) were 26000 ± 5000 nM and 85000 ± 2000 nM, respectively.
As to `OCC1OC(OC2C(O)C(O)OC(CO)C2O)C(O)C(O)C1O` [Compound 11, α-1,3-D-mannosyl D-mannose], the half-inhibitory concentration (IC50) against LecBPA14 [3] amounted to 26000 ± 6000 nM; on LecBPAO1 [4] (setting [10]), 63000 ± 3000 nM.
A word on the Kd: it is the concentration at which binding is half-saturated. Regarding `CC(=O)NC1C(OC2C(O)C(O)OC(CO)C2O)OC(CO)C(OC2OC(C)C(O)C(O)C2O)C1OC1OC(CO)C(O)C(O)C1O` (stereo not shown) [Compound 12, Lewis^a], the “N (LecBPAO1)” value on LecBPAO1 [1] is reported as 1.08. Also, at LecBPAO1 [1] (ITC), the “-TΔS (LecBPAO1)” value was -0.741 kcal/mol, the “ΔG (LecBPAO1)” value was -9.11 kcal/mol and the “ΔH (LecBPAO1)” value was -8.34 kcal/mol. Besides, the dissociation constant (Kd) on LecBPAO1 [1] (read-out: Kd (LecBPAO1), ITC) was 212 nM. For the same compound, at LecBPA14 [2] (ITC stoichiometry, 25 °C), the “N (LecBPA14)” value is given as 1.05 ± 0.11. In addition, on LecBPA14 [2] (ITC, 25 °C), the “-TΔS (LecBPA14)” value was -0.813 ± 0.509 kcal/mol, the “ΔG (LecBPA14)” value was -9.78 ± 0.196 kcal/mol and the “ΔH (LecBPA14)” value is -8.99 ± 0.602 kcal/mol. Moreover, at LecBPA14 [2] (Kd (LecBPA14), ITC, 25 °C), binding was characterised by a dissociation constant (Kd) of 70 nM. In addition, the dissociation constant (Kd) at LecBPA14 [2] (Kd, individual ITC titrations, Fig. S6, TBS supplemented with 1 mM CaCl2) was 62.1 nM and 96.2 nM and 50.3 nM. At LecBPA14 [2] (setting [8]), the G was -9,83E+03 cal/mol and -9,57E+03 cal/mol and -9,96E+03 cal/mol; the H was -8.521 kcal/mol and -8.769 kcal/mol and -9.667 kcal/mol; the s is 4,39 cal/molK and 2,69 cal/molK and 0,969 cal/molK. The Ka on LecBPA14 [2] (setting [9]) was 1,61E+07 1/M and 1,04E+07 1/M and 1,99E+07 1/M. Besides, inhibition against LecBPA14 [3] was half-maximal at 78 nM (IC50). The same compound displayed a concentration for half-maximal inhibition (IC50) on LecBPAO1 [4] (setting [11]) of 166 nM. The same compound displayed a concentration for half-maximal inhibition (IC50) on LecBPAO1 [4] (setting [10]) of 170 ± 10 nM.
Turning to `CC(=O)NC1C(OC2C(O)C(O)OC(CO)C2O)OC(CO)C(O)C1OC1OC(CO)C(O)C(O)C1OC1OC(C)C(O)C(O)C1O` (stereo not shown) [Compound 14, H type I], the IC50 stood at 910 ± 100 nM against LecBPA14 [3] and 2300 ± 100 nM at LecBPAO1 [4] (setting [10]).
On to `CC(=O)NC1C(OC2C(O)C(O)OC(CO)C2O)OC(CO)C(OC2OC(CO)C(O)C(O)C2OC2OC(C)C(O)C(O)C2O)C1O` (stereo not shown) [Compound 15, H type II], for which the “N (LecBPA14)” value on LecBPA14 [2] (ITC stoichiometry, 25 °C) was 0.98 ± 0.03. Besides, on LecBPA14 [2] (ITC, 25 °C), the “-TΔS (LecBPA14)” value was -2.75 ± 0.263 kcal/mol, the “ΔG (LecBPA14)” value was -9.18 ± 0.22 kcal/mol and the “ΔH (LecBPA14)” value was -6.43 ± 0.454 kcal/mol. For the same compound, the dissociation constant Kd on LecBPA14 [2] (Kd (LecBPA14), ITC, 25 °C) came to 199 nM. For the same compound, the IC50 at LecBPA14 [3] was 180 nM. The compound further came in with a Kd at LecBPAO1 [5] of 605 ± 140 nM. Also, the “N (LecBPAO1)” value at LecBPAO1 [5] (ITC stoichiometry, 25 °C) came out at 1.01 ± 0.07. Besides, at LecBPAO1 [5] (ITC, 25 °C), the “-TΔS (LecBPAO1)” value was -0.837 ± 0.096 kcal/mol, the “ΔG (LecBPAO1)” value is -8.48 ± 0.12 kcal/mol and the “ΔH (LecBPAO1)” value was -7.67 ± 0.096 kcal/mol. Besides, at LecBPAO1 [4] (setting [11]), the IC50 turned out to be 930 nM.
In the case of `CC(=O)NC1C(OC2C(O)C(O)OC(CO)C2O)OC(CO)C(OC2OC(C)C(O)C(O)C2O)C1OC1OC(CO)C(O)C(O)C1OC1OC(C)C(O)C(O)C1O` (stereo not shown) [Compound 16, Lewis^b], the IC50 against LecBPA14 [3] stood at 150 ± 10 nM; on LecBPAO1 [4] (setting [10]), 690 ± 40 nM.
For the compound `CC(=O)N[C@H]1[C@H](O[C@H]2[C@H](O)[C@@H](NC(C)=O)C(O)O[C@@H]2CO)O[C@H](CO)[C@@H](O[C@@H]2O[C@H](CO[C@H]3O[C@H](CO)[C@@H](O)[C@H](O)[C@@H]3O[C@@H]3O[C@H](CO)[C@@H](O[C@@H]4O[C@H](CO)[C@H](O)[C@H](O[C@@H]5O[C@H](CO)[C@@H](O[C@@H]6O[C@H](CO)[C@H](O)[C@H](O)[C@H]6O[C@@H]6O[C@@H](C)[C@@H](O)[C@@H](O)[C@@H]6O)[C@H](O)[C@H]5NC(C)=O)[C@H]4O)[C@H](O)[C@H]3NC(C)=O)[C@@H](O)[C@H](O[C@H]3O[C@H](CO)[C@@H](O)[C@H](O)[C@@H]3O[C@@H]3O[C@H](CO)[C@@H](O[C@@H]4O[C@H](CO)[C@H](O)[C@H](O[C@@H]5O[C@H](CO)[C@@H](O[C@@H]6O[C@H](CO)[C@H](O)[C@H](O)[C@H]6O[C@@H]6O[C@@H](C)[C@@H](O)[C@@H](O)[C@@H]6O)[C@H](O)[C@H]5NC(C)=O)[C@H]4O)[C@H](O)[C@H]3NC(C)=O)[C@@H]2O)[C@@H]1O` (stereo partly shown) [Compound 23], the half-maximal inhibitory concentration (IC50) amounted to 35 nM on LecBPA14 [3] and 114 nM on LecBPAO1 [4] (setting [11]).
A word on the stoichiometry N: it is the number of molecules, sites or subunits per partner or assembly. As for “LecB from P. aeruginosa PA14 (natural protein)”, the stoichiometry N in assay [6] and in assay [7] was 4 throughout.
